Laboratory results as given in ChEMBL document CHEMBL2203036, “Discovery of 1-[2-(2,4-dimethylphenylsulfanyl)phenyl]piperazine (Lu AA21004): a novel multimodal compound for the treatment of major depressive disorder” (J Med Chem, 2011).
Calls of active or inactive are those of the source. The calls are words filed in the database; no cut-off is given here.

Columns and labels:
[1] = biological target: Beta-2 adrenergic receptor (Homo sapiens, UniProt P07550); test: Binding affinity to human beta 2 adrenergic receptor
[2] = biological target: Histamine H1 receptor (Homo sapiens, UniProt P35367); test: Binding affinity to human histamine H1 receptor
[3] = system: Rattus norvegicus; test: Target occupancy at SERT in Harlan rat at 10 mg/kg, sc administered QD for 3 days relative to vehicle-treated control; format: functional; conditions: route subcutaneous
[4] = biological target: Sodium-dependent dopamine transporter (Rattus norvegicus, UniProt P23977); test: Inhibition of DAT-mediated [3H]DA in rat synaptosomes by scintillation counting; format: subcellular, Brain
[5] = system: Rattus norvegicus; test: Antidepression activity in Harlan rat assessed as increase in extracellular 5HT level in medial prefrontal cortex region at 5 to 10 mg/kg, sc administered QD for 3 days by microdialysis method
[6] = biological target: Cytochrome P450 3A4 (Homo sapiens, UniProt P08684); test: Inhibition of human recombinant CYP3A4 using resorufin benzyl ether after 30 mins by fluorescence spectrophotometric analysis; format: ADME
[7] = biological target: 5-hydroxytryptamine receptor 3A (Rattus norvegicus, UniProt P35563); test: Antagonist activity at rat 5HT3A receptor expressed in xenopus oocytes assessed as inhibition of 5HT-induced effect by electrophysiological method; format: functional, cell-based, Oocyte
[8] = biological target: 5-hydroxytryptamine receptor 1B (Homo sapiens, UniProt P28222); test: Inhibition of human 5HT1B receptor at 1 uM
[9] = biological target: T1, 5-hydroxytryptamine receptor 3A (Homo sapiens, UniProt P46098); test: Binding affinity to human 5HT3A receptor
T1 sequence (P46098 whole entry): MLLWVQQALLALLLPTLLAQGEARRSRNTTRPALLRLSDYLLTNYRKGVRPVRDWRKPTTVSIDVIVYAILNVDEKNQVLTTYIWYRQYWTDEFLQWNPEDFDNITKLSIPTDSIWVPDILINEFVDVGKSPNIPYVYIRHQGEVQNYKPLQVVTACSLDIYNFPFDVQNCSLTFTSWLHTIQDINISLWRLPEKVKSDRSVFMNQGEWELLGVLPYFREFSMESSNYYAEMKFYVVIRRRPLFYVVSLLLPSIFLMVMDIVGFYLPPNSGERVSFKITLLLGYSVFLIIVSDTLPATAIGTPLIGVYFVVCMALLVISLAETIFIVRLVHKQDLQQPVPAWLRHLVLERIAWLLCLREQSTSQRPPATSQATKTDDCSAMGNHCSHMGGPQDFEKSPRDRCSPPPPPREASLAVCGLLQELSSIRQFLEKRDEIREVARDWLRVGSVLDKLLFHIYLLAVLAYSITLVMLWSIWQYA

[10] = biological target: T1, 5-hydroxytryptamine receptor 3A; test: Antagonist activity at human 5HT3A receptor expressed in xenopus oocytes assessed as inhibition of 5HT-induced effect by electrophysiological method; format: functional, cell-based, Oocyte
[11] = system: Rattus norvegicus; test: Antidepression activity in Harlan rat assessed as increase in extracellular 5HT level in ventral hippocampus region at 2.5 to 10 mg/kg, sc by microdialysis method; conditions: TDE = time-dependent effect
[12] = biological target: T2, 5-hydroxytryptamine receptor 3A (Homo sapiens) (UniProt P46098); test: Inhibition of human 5HT3A receptor at 1 uM
T2 sequence (whole entry): T1 sequence (P46098 whole entry)

[13] = biological target: 5-hydroxytryptamine receptor 3A (Rattus norvegicus) (UniProt P35563); test: Agonist activity at rat 5HT3A receptor expressed in xenopus oocytes at 0.1 to 100000 nM by electrophysiological method; conditions: Oocyte
[14] = biological target: 5-hydroxytryptamine receptor 7 (Homo sapiens, UniProt P34969); test: Binding affinity to human 5HT7 receptor
Chain of 5-hydroxytryptamine receptor 7 (P34969 whole entry): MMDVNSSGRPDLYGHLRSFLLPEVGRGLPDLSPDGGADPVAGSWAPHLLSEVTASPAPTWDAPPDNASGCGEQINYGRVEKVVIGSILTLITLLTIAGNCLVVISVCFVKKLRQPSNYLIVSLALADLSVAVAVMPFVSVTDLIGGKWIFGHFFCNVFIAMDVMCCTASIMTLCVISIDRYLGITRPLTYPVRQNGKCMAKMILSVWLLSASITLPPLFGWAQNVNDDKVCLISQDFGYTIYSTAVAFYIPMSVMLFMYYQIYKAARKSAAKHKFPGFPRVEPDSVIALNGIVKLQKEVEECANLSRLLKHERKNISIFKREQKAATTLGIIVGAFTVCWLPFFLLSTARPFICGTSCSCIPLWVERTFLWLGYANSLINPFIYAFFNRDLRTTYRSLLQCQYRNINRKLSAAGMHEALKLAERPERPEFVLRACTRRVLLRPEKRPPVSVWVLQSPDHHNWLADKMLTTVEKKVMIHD

Chain of Cytochrome P450 3A4 (P08684 whole entry): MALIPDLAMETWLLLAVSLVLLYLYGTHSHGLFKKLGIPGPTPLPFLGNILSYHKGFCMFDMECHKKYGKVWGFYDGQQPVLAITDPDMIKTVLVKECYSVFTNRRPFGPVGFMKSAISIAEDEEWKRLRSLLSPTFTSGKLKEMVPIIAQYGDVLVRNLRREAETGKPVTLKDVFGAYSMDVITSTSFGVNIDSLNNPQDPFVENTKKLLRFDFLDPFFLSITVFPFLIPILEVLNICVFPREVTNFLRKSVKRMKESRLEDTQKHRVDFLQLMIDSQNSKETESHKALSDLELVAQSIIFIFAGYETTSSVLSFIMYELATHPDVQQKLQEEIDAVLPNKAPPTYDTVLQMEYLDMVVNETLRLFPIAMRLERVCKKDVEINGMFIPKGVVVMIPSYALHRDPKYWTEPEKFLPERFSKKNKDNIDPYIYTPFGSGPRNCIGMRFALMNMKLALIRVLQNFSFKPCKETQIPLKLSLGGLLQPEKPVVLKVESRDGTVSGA
Chain of Beta-2 adrenergic receptor (P07550 whole entry): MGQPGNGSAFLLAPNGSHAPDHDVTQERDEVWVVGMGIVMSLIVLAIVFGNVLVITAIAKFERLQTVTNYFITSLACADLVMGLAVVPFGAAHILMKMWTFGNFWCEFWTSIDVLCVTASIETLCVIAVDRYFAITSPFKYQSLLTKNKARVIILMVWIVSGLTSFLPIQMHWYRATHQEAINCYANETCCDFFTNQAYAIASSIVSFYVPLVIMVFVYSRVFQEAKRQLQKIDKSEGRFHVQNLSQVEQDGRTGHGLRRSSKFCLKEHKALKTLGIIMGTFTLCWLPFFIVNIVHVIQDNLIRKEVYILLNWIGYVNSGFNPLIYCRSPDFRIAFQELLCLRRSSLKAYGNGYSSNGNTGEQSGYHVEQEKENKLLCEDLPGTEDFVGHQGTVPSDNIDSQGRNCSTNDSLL
Chain of Histamine H1 receptor (P35367 whole entry): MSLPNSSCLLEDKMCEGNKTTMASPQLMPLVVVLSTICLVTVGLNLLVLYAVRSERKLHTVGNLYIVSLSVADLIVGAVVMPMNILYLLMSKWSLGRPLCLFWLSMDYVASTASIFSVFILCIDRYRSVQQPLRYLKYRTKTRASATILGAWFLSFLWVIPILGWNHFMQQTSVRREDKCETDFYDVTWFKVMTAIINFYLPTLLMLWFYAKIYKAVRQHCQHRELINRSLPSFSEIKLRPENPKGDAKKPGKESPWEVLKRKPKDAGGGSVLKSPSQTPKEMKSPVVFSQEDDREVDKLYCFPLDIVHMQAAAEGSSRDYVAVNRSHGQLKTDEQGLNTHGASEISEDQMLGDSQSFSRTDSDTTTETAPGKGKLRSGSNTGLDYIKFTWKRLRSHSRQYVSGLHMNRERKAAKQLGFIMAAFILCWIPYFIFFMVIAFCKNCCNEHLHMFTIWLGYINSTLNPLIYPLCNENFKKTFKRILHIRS
Chain of 5-hydroxytryptamine receptor 3A (Rattus norvegicus, UniProt P35563) (P35563 whole entry): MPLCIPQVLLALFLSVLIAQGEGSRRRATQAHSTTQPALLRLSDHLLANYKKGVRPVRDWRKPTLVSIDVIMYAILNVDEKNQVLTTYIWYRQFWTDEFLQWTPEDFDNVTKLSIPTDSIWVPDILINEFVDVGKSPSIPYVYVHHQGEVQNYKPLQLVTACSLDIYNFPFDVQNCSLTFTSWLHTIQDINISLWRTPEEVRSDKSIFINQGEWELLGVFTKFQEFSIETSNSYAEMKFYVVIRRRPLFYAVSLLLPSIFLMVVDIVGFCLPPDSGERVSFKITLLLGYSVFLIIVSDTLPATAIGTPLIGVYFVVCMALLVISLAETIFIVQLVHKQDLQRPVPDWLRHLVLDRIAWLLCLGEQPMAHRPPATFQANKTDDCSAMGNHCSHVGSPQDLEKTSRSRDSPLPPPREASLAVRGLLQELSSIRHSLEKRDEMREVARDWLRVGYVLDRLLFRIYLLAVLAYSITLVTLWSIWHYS
Chain of 5-hydroxytryptamine receptor 3A (Rattus norvegicus) (P35563 whole entry): as above
Chain of Sodium-dependent dopamine transporter (P23977 whole entry): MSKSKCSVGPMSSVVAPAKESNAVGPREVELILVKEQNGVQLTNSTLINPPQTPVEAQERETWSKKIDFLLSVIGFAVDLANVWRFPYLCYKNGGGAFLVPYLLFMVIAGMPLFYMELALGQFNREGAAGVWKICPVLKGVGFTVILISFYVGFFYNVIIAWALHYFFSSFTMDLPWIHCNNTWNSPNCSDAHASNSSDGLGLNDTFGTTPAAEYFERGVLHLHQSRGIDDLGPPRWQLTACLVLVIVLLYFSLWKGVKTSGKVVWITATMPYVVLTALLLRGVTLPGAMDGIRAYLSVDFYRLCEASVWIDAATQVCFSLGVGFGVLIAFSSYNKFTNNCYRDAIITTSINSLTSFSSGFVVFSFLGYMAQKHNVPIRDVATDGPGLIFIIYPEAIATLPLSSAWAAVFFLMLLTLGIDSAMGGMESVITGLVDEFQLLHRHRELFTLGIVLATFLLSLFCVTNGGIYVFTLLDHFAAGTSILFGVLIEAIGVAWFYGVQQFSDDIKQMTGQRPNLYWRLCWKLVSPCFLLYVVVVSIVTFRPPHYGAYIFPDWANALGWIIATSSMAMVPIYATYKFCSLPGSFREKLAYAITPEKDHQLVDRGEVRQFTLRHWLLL
Chain of 5-hydroxytryptamine receptor 1B (P28222 whole entry): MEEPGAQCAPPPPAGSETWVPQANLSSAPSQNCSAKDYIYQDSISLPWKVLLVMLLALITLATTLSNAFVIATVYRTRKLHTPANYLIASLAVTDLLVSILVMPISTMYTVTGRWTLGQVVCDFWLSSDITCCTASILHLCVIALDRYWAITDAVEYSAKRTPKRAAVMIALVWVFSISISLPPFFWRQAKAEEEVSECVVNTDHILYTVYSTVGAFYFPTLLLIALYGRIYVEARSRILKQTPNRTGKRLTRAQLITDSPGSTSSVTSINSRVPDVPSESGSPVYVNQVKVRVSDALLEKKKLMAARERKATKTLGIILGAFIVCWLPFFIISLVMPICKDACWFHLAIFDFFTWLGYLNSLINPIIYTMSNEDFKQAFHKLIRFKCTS

Cc1ccc(Sc2ccccc2N2CCNCC2)c(C)c1.Cl
Ki [1]: 560 nM
Ki [2]: 180 nM
Occ [3]: 57%
IC50 [4]: 890 nM
Activity [5]: Active
IC50 [6]: 10000 nM
IC50 [7]: 0.18 nM
inhibition [8]: 100%
Ki [9]: 3.7 nM
IC50 [10]: 12 nM
Activity [11]: tde
inhibition [12]: 100%
Activity [13]: inactive
Ki [14]: 19 nM
